According to BindingDB's records for doi:10.1016/j.bmcl.2005.06.067 (Carlsson Research, 2005):

Key:
[1] = Inhibitory activity against 5-hydroxytryptamine 1D receptor in calf
[2] = as above; remark: listed apart in the source

SMILES | IC50 [1] [µM] | IC50 [2] [µM]
CCc1[nH]c2ccc(OC)cc2c1CCN(C)C [2-ethyl-5-methoxy-N,N-dimethyltryptamine] | 1.4 | 
COc1ccc2[nH]c(C)c(C3=CCNCC3)c2c1 [5-Methoxy-2-methyl-3-(1,2,3,6-tetrahydro-pyridin-4-yl)-1H-indole] |  | > 1
